This is an account of results in US10597375B2, “Halogen-substituted heterocyclic compound” (UBE INDUSTRIES, LTD., priority 2012, dated 2020).

Experiment [1] relates to A2058 human melanoma cells. In words: Cell migration test (LPA-induced, Chemo-Tx). Type of experiment: cell-based. Particulars: LPA 100 nM, 3 hours, read-out: IC50: concentration of the test compound which inhibits the cell migration activity of LPA by 50%. As for the experimental part:
The cell migration test was carried out using Chemo-Tx (registered trademark) (116-8, Neuro Probe). A2058 human melanoma cells (obtained from European Collection of Cell Culture) were cultured in a serum-free EMEM medium for 24 hours, and then re-suspended in a 0.1% BSA-containing DMEM medium to obtain a cell suspension. The test compound dissolved in DMSO in various concentration was each added to the cell suspension, and the suspension was cultured at 37° C. for 15 minutes (the final DMSO concentration of 0.5%). LPA dissolved in a 0.1% BSA-containing DMEM medium (the final concentration of 100 nM) was added to Chemo-Tx 96 well plate, and a Chemo-Tx filter which had been coated with 0.001% Fibronectin on the both surfaces was put on the plate. The suspension of cultured cells (25,000 cells) was added onto the upper surface of the filter and further cultured at 37° C. for 3 hours, and the cells on the upper surface of the filter were removed. After the filter was removed and dried, the cells which had migrated to the lower surface of the filter were stained using Diff-Quik stain (16920, Sysmex). The absorbance of the filter (570 nm) was measured and the concentration of the test compound which inhibits the cell migration activity of LPA by 50%, (1050) was determined by non-linear regression analysis using EXSAS (version 7.6.0, Arm Systex).

Experiment [2] deals with LPA-induced histamine release. In words: LPA-induced histamine release test in mouse. The experiment is classed as in vivo. Particulars: male CD1 mice; oral dose of 10 mg/kg; LPA 300 μg/mouse via tail vein 4 hours after administration; blood 2 minutes after LPA; read-out: efficacy rate (rate of individuals which showed the inhibition rate of 80% or more of plasma histamine). How it is done:
LPA-Induced Histamine Release Test in Mouse
LPA-induced histamine release test in mouse was carried out according to a method by Swaney et al. (The Journal of Pharmacology and Experimental Therapeutics, 336 (2011), pages 693-700). The test compound was suspended in 0.5% methylcellulose solution (133-14255, Wako), and orally administered to male CD1 mice (body weight: 30 to 40 g, supplied by Charles River Laboratories Japan) at a dose of 10 mL/kg. 4 hours after administration, LPA (857130P, Avanti) dissolved in a 0.1% BSA-containing PBS was administered via the tail vein (300 μg/mouse). Immediately, the mouse was anesthetized with isoflurane, and blood was collected via a vein 2 minutes after the administration of LPA. The blood was put into a test tube containing EDTA, and centrifuged at 4° C., 2,000×g, for 10 minutes to obtain the plasma.
The histamine concentration in the plasma was measured by EIA kit (62HTMPEB, Cisbio Bioassays).

`COc1cc(-c2sc(F)cc2NC(=O)O[C@H](C)c2cccc(F)c2)ccc1-c1ccc(C2(C(=O)O)CC2)cc1` [I-428, (R)-1-{4′-[5-Fluoro-3-({[1-(3-fluorophenyl)ethoxy]carbonyl}amino)thiophen-2-yl]-2′-methoxy-[1,1′-biphenyl]-4-yl}cyclopropanecarboxylic acid]: the IC50 in experiment [1] was no more than 200 nM. The responders at 10 mg/kg in experiment [2] is no less than 50%.

For the molecule `COc1cc(-c2sc(F)cc2NC(=O)O[C@H](C)c2ccc(F)cc2)ccc1-c1ccc(C2(C(=O)O)CC2)cc1` [I-432, (R)-1-{4′-[5-Fluoro-3-({[1-(4-fluorophenyl)ethoxy]carbonyl}amino)thiophen-2-yl]-2′-methoxy-[1,1′-biphenyl]-4-yl}cyclopropanecarboxylic acid], the IC50 in experiment [1] is no more than 200 nM. The responders at 10 mg/kg in experiment [2] is no less than 50%.

Take `COc1cc(-c2sc(F)cc2NC(=O)O[C@H](C)c2ccccc2Cl)ccc1-c1ccc(C2(C(=O)O)CC2)cc1` [I-442, (R)-1-{4′-[3-({[1-(2-Chlorophenyl)ethoxy]carbonyl}amino)-5-fluorothiophen-2-yl]-2′-methoxy-[1,1′-biphenyl]-4-yl}cyclopropanecarboxylic acid]: the IC50 in experiment [1] is no more than 200 nM. Further, the responders at 10 mg/kg in experiment [2] is no less than 50%.

As for `COc1cc(-c2sc(F)cc2NC(=O)O[C@H](C)c2ccccc2C)ccc1-c1ccc(C2(C(=O)O)CC2)cc1` [I-450, (R)-1-{4′-[5-Fluoro-3-({[1-(o-tolyl)ethoxy]carbonyl}amino)thiophen-2-yl]-2′-methoxy-[1,1′-biphenyl]-4-yl}cyclopropanecarboxylic acid], the IC50 in experiment [1] was no more than 200 nM. Moreover, the responders at 10 mg/kg in experiment [2] was no less than 50%.

Take `COc1cc(-c2sc(F)cc2NC(=O)O[C@H](C)c2cc(F)ccc2F)ccc1-c1ccc(C2(C(=O)O)CC2)cc1` [I-458, (R)-1-{4′-[3-({[1-(2,5-Difluorophenyl)ethoxy]carbonyl}amino)-5-fluorothiophen-2-yl]-2′-methoxy-[1,1′-biphenyl]-4-yl}cyclopropanecarboxylic acid]: the IC50 in experiment [1] was no more than 200 nM. Besides, in experiment [2], the responders at 10 mg/kg is no less than 50%.

With `C[C@@H](OC(=O)Nc1cc(Cl)sc1-c1ccc(-c2ccc(C3(C(=O)O)CC3)cc2)cc1)c1ccsc1` [I-596, (R)-1-{4′-[5-Chloro-3-({[1-(thiophen-3-yl)ethoxy]carbonyl}amino)thiophen-2-yl]-[1,1′-biphenyl]-4-yl}cyclopropanecarboxylic acid], in experiment [1], the IC50 is no more than 200 nM. Moreover, the responders at 10 mg/kg in experiment [2] was no less than 50%.

For `Cc1cscc1[C@@H](C)OC(=O)Nc1cc(Cl)sc1-c1ccc(-c2ccc(C3(C(=O)O)CC3)cc2)cc1` [I-606, (R)-1-{4′-[5-Chloro-3-({[1-(4-methylthiophen-3-yl)ethoxy]carbonyl}amino)thiophen-2-yl]-[1,1′-biphenyl]-4-yl}cyclopropanecarboxylic acid], the IC50 in experiment [1] is no more than 200 nM. Also, the responders at 10 mg/kg in experiment [2] is no less than 50%.

For `C[C@@H](OC(=O)Nc1cc(F)sc1-c1ccc(-c2ccc(C3(C(=O)O)CC3)cc2)cc1)c1ccsc1` [I-640, (R)-1-{4′-[5-Fluoro-3-({[1-(thiophen-3-yl)ethoxy]carbonyl}amino)thiophen-2-yl]-[1,1′-biphenyl]-4-yl}cyclopropanecarboxylic acid], in experiment [1], the IC50 was no more than 200 nM. Also, the responders at 10 mg/kg in experiment [2] was no less than 50%.

Take `Cc1cscc1[C@@H](C)OC(=O)Nc1cc(F)sc1-c1ccc(-c2ccc(C3(C(=O)O)CC3)cc2)cc1` [I-650, (R)-1-{4′-[5-Fluoro-3-({[1-(4-methylthiophen-3-yl)ethoxy]carbonyl}amino)thiophen-2-yl]-[1,1′-biphenyl]-4-yl}cyclopropanecarboxylic acid]: in experiment [1], the IC50 is no more than 200 nM. Further, the responders at 10 mg/kg in experiment [2] is no less than 50%.

`COc1cc(-c2sc(Cl)cc2NC(=O)O[C@H](C)c2ccsc2)ccc1-c1ccc(C2(C(=O)O)CC2)cc1` [I-780, (R)-1-{4′-[5-Chloro-3-({[1-(thiophen-3-yl)ethoxy]carbonyl}amino)thiophen-2-yl]-2′-methoxy-[1,1′-biphenyl]-4-yl}cyclopropanecarboxylic acid]: the IC50 in experiment [1] was no more than 200 nM. In addition, the responders at 10 mg/kg in experiment [2] is no less than 50%.
